Experimental data from patent US20230026167A1, “COSMETIC OR DERMATOLOGICAL COMPOSITION ACTING IN PARTICULAR ON THE EFFECTS OF BLUE LIGHT ON SKIN AND ITS APPENDAGES, AND ASSOCIATED USES” (Sederma, priority 2019, published 2023).
* marks the point of attachment. Palmitoyl = CCCCCCCCCCCCCCCC(=O)*

System: IL-6
Assay: Synergy test: IL-6 production on HK following blue light irradiation (ELISA)
Format: cell-based, human
Settings: blue light 30.2 J/cm2, 24 hours contact, compound taken separately, nsd
Method: HK are cultivated in their culture medium. After rinsing with PBS, the cells are returned to this same buffer and exposed to blue light at a non-cytotoxic dose of 30.2 J/cm^2. The exhibition system consists of a set of 30 blue LEDs spread over a 30 cm^2 flat surface. The photon flux reaches the cells perpendicularly. The temperature is controlled, and all the cells are in the same enclosure (37° C./5% CO2). The emission spectrum is centered on 420 nm. The cells are then brought into contact with each of the invention compounds taken separately or with the composition according to the invention for 24 hours. The culture media are then harvested, and the IL-6 concentrations assayed by ELISA method. An assay on the cell layers is used to reduce to the number of cells.

| Molecule | % of variation in IL-6 production (15 ppm) [%] | % of variation in IL-6 production (1.6 ppm) [%] |
| --- | --- | --- |
| Palmitoyl-GQPR-OH [Pal-GQPR] | −7 |  |
| O=c1cc(-c2ccccc2)oc2cc(O)cc(O)c12 [Chrysine, 5,7-dihydroxyflavone] |  | −10 |
